Laboratory results published in ChEMBL document CHEMBL3588771, “Discovery of 5-Amino-N-(1H-pyrazol-4-yl)pyrazolo[1,5-a]pyrimidine-3-carboxamide Inhibitors of IRAK4” (ACS Med Chem Lett, 2015).

How the values were obtained:
in vitro [1] = settings: dog, MDCK
in vivo [2] = settings: rat, po, 1 mg/kg
in vivo [3] = settings: rat, plasma, iv, 0.5 mg/kg
in vitro [4] = settings: pig, LLC-PK1

Compound	Papp (in vitro [1]) [×10⁻⁶ cm/s]	bioavailability (in vivo [2]) [%]	clearance (in vivo [3]) [mL/min/kg]	Papp (in vitro [4]) [×10⁻⁶ cm/s]
Cn1cc(NC(=O)c2cnn3ccc(N[C@H]4CCCC[C@H]4N)nc23)c(C(N)=O)n1	< 2			
Cn1cc(NC(=O)c2cnn3ccc(N[C@@H]4CCCC[C@@H]4N)nc23)c(C(N)=O)n1		0	56	2
Cn1cc(NC(=O)c2cnn3ccc(N[C@@H]4CCCC[C@@H]4N)nc23)c(C#N)n1	17			
Cn1cc(NC(=O)c2cnn3ccc(N[C@@H]4CCCC[C@@H]4N)nc23)c(C(F)(F)F)n1	16	5	98	
Cn1cc(NC(=O)c2cnn3ccc(N[C@@H]4CCCC[C@@H]4N)nc23)c(C(F)F)n1	13			
Cn1cc(NC(=O)c2cnn3ccc(N[C@@H]4CCCC(F)(F)[C@@H]4N)nc23)c(C(F)F)n1	29	46	29	
Cn1cc(NC(=O)c2cnn3ccc(N[C@@H]4CCC(F)(F)C[C@@H]4N)nc23)c(C(F)(F)F)n1	26			
Cn1cc(NC(=O)c2cnn3ccc(N4CC[C@H](F)[C@@H](N)C4)nc23)c(C(F)(F)F)n1	28			
